Experimental data as given in US8440652B2, “MST1 kinase inhibitors and methods of their use” (Lexicon Pharmaceuticals, Inc., priority 2011, dated 2013).
Read-outs that look alike come from different tables or passages of the source.

Target: T1, MST1 (Homo sapiens, UniProt Q13043)
T1 sequence (Q13043 1-487): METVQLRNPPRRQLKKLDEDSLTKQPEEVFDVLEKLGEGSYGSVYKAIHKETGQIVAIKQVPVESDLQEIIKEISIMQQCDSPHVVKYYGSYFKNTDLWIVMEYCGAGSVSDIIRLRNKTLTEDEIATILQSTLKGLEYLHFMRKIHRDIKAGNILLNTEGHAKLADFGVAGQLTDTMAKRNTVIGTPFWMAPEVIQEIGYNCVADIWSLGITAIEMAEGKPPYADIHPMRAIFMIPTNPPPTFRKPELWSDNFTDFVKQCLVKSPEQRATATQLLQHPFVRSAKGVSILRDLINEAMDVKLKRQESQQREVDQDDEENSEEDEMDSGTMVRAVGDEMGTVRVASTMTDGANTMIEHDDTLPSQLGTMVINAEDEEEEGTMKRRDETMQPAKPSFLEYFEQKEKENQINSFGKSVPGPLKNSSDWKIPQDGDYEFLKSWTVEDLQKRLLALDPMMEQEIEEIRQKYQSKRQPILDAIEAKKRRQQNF
Test: In vitro measurement of MST1 inhibition (Z′-Lyte kinase assay)
Format: biochemical

[1] = 1 μM ATP, read-out: IC50 (μM) 1 μM ATP
[2] = 50 μM ATP, read-out: IC50 (μM) 50 μM ATP

SMILES | IC50 [1] [µM] | IC50 [2] [µM]
CN(C1CC1)S(=O)(=O)c1ccc(-c2cnc(N)c(-c3ccc4c(c3)CCNC4=O)n2)nc1 [6-(5-amino-6-(1-oxo-1,2,3,4-tetrahydroisoquinolin-6-yl)pyrazin-2-yl)-N-cyclopropyl-N-methylpyridine-3-sulfonamide] | < 0.01 | < 0.01
CC(C)(C#N)c1ccc(-c2cnc(N)c(-c3ccc4c(c3)CCNC4=O)n2)cc1 [2-(4-(5-amino-6-(1-oxo-1,2,3,4-tetrahydroisoquinolin-6-yl)pyrazin-2-yl)phenyl)-2-methylpropanenitrile] | < 0.05 | < 0.01
N#CC1(c2ccc(-c3cnc(N)c(-c4ccc5c(c4)CCNC5=O)c3)cc2)CC1 [1-(4-(6-amino-5-(1-oxo-1,2,3,4-tetrahydroisoquinolin-6-yl)pyridin-3-yl)phenyl)cyclopropanecarbonitrile] | < 0.05 | < 0.05
N#CC1(c2ccc(-c3cnc(N)c(-c4ccc5c(=O)[nH]ccc5c4)n3)cc2)CC1 [1-(4-(5-amino-6-(1-oxo-1,2-dihydroisoquinolin-6-yl)pyrazin-2-yl)phenyl)cyclopropanecarbonitrile] | < 0.05 | < 0.01
CN(C1CC1)S(=O)(=O)c1ccc(-c2cnc(N)c(-c3ccc4c(c3)C3(CC3)CNC4=O)n2)cc1 [4-(5-amino-6-(1′-oxo-2′,3′-dihydro-1′H-spiro[cyclopropane-1,4′-isoquinolin]-6′-yl)pyrazin-2-yl)-N-cyclopropyl-N-methylbenzenesulfonamide] | < 0.01 | < 0.01
Cc1cc(-c2cnc(N)c(-c3ccc4c(c3)CCNC4=O)c2)ccc1S(=O)(=O)N(C)C1CC1 [4-(6-amino-5-(1-oxo-1,2,3,4-tetrahydroisoquinolin-6-yl)pyridin-3-yl)-N-cyclopropyl-N,2-dimethylbenzenesulfonamide] | < 0.01 | < 0.01
Nc1ncc(-c2ccc(S(=O)(=O)NC3CC3)cc2)nc1-c1ncc(-c2ccccc2)[nH]1 [4-(5-amino-6-(5-phenyl-1H-imidazol-2-yl)pyrazin-2-yl)-N-cyclopropylbenzenesulfonamide] |  | < 0.05
N#CC1(c2ccc(-c3cnc(N)c(-c4ccc5c(c4)C4(CC4)NC5=O)n3)cc2)CCOCC1 [4-(4-(5-amino-6-(3′-oxospiro[cyclopropane-1,1′-isoindolin]-6′-yl)pyrazin-2-yl)phenyl)tetrahydro-2H-pyran-4-carbonitrile] | < 0.05 | < 0.01
CN(C1CC1)S(=O)(=O)c1ccc(-c2cnc(N)c(-c3ccc4c(c3)NCCNC4=O)c2)cc1 [4-(6-amino-5-(5-oxo-2,3,4,5-tetrahydro-1H-benzo[e][1,4]diazepin-8-yl)pyridin-3-yl)-N-cyclopropyl-N-methylbenzenesulfonamide] | < 0.01 | < 0.01
N#CC1(c2ccc(-c3cnc(N)c(-c4ccc5c(c4)CCNC5=O)n3)cc2)CCOCC1 [4-(4-(5-amino-6-(1-oxo-1,2,3,4-tetrahydroisoquinolin-6-yl)pyrazin-2-yl)phenyl)tetrahydro-2H-pyran-4-carbonitrile] | < 0.05 | < 0.01
CCNS(=O)(=O)c1ccc(-c2cnc(N)c(-c3ccc4c(c3)CCNC4=O)n2)cc1 [4-(5-amino-6-(1-oxo-1,2,3,4-tetrahydroisoquinolin-6-yl)pyrazin-2-yl)-N-ethylbenzenesulfonamide] | < 0.01 | < 0.01
CCN(C)S(=O)(=O)c1ccc(-c2cnc(N)c(-c3cc4c(s3)C(=O)NCC4)c2)cc1 [4-(6-amino-5-(7-oxo-4,5,6,7-tetrahydrothieno[2,3-c]pyridin-2-yl)pyridin-3-yl)-N-ethyl-N-methylbenzenesulfonamide] | < 0.05 | < 0.01
Nc1ncc(-c2ccc(C3(O)CCOCC3)cc2)nc1-c1ccc2c(c1)CCNC2=O [6-(3-amino-6-(4-(4-hydroxytetrahydro-2H-pyran-4-yl)phenyl)pyrazin-2-yl)-3,4-dihydroisoquinolin-1(2H)-one] | < 0.05 | < 0.01
N#Cc1ccc(-c2cnc(N)c(-c3cc4c(cn3)C(=O)NCC4)c2)cc1 [4-(6-amino-5-(8-oxo-5,6,7,8-tetrahydro-2,7-naphthyridin-3-yl)pyridin-3-yl)benzonitrile] | < 0.05 | < 0.01
Nc1ncc(-c2ccc(S(=O)(=O)N3CCCC34CC4)cc2)cc1-c1ccc2c(c1)CCNC2=O [6-(5-(4-(4-azaspiro[2.4]heptan-4-ylsulfonyl)phenyl)-2-aminopyridin-3-yl)-3,4-dihydroisoquinolin-1(2H)-one] | < 0.05 | < 0.01
C[C@H]1CNc2cc(-c3cc(-c4ccc(S(=O)(=O)NC5CC5)cc4)cnc3N)ccc2C(=O)N1 [(S)-4-(6-amino-5-(3-methyl-5-oxo-2,3,4,5-tetrahydro-1H-benzo[e][1,4]diazepin-8-yl)pyridin-3-yl)-N-cyclopropylbenzenesulfonamide] | < 0.01 | < 0.01

SMILES | IC50 [1] [µM] | IC50 [2] [µM]
CN(C1CC1)S(=O)(=O)c1ccc(-c2cnc(N)c(-c3cc4c(cn3)C(=O)NCC4)n2)cc1 [4-(5-amino-6-(8-oxo-5,6,7,8-tetrahydro-2,7-naphthyridin-3-yl)pyrazin-2-yl)-N-cyclopropyl-N-methylbenzenesulfonamide] | < 0.01 | < 0.01
Nc1ncc(-c2ccc(S(=O)(=O)NC3CC3)cc2)cc1-c1ccc2c(c1)OCCNC2=O [4-(6-amino-5-(5-oxo-2,3,4,5-tetrahydrobenzo[f][1,4]oxazepin-8-yl)pyridin-3-yl)-N-cyclopropylbenzenesulfonamide] | < 0.01 | < 0.01
N#CC1(c2ccc(-c3cc(-c4ccc5c(c4)CCNC5=O)c(N)nn3)cc2)CC1 [1-(4-(6-amino-5-(1-oxo-1,2,3,4-tetrahydroisoquinolin-6-yl)pyridazin-3-yl)phenyl)cyclopropanecarbonitrile] | < 0.15 | < 0.15
CC1(C#N)CCc2cc(-c3cnc(N)c(-c4ccc5c(c4)CCNC5=O)n3)ccc21 (stereo not drawn) [5-(5-amino-6-(1-oxo-1,2,3,4-tetrahydroisoquinolin-6-yl)pyrazin-2-yl)-1-methyl-2,3-dihydro-1H-indene-1-carbonitrile] | < 0.05 | < 0.01
CC1CNc2cc(-c3nc(-c4ccc(S(=O)(=O)N(C)C5CC5)cc4)cnc3N)ccc2C(=O)N1 (stereo not drawn) [4-(5-amino-6-(3-methyl-5-oxo-2,3,4,5-tetrahydro-1H-benzo[e][1,4]diazepin-8-yl)pyrazin-2-yl)-N-cyclopropyl-N-methylbenzenesulfonamide] | < 0.01 | < 0.01
CCOC(=O)Cc1ccc(-c2cnc(N)c(-c3ccc4c(c3)CCNC4=O)n2)cc1 [ethyl 2-(4-(5-amino-6-(1-oxo-1,2,3,4-tetrahydroisoquinolin-6-yl)pyrazin-2-yl)phenyl)acetate] | < 0.15 | < 0.05
CN(C1CC1)S(=O)(=O)c1ccc(-c2cnc(N)c(-c3ccc4c(c3)C3(CC3)NC4=O)c2)cc1 [4-(6-amino-5-(3′-oxospiro[cyclopropane-1,1′-isoindolin]-6′-yl)pyridin-3-yl)-N-cyclopropyl-N-methylbenzenesulfonamide] | < 0.01 | < 0.01
CCN(CC)S(=O)(=O)c1ccc(-c2cnc(N)c(-c3ccc4c(O)n[nH]c4c3)c2)cc1 [4-(6-amino-5-(3-hydroxy-1H-indazol-6-yl)pyridin-3-yl)-N,N-diethylbenzenesulfonamide] |  | < 0.15
CCN(CC1CC1)S(=O)(=O)c1ccc(-c2cnc(N)c(-c3ccc4c(c3)CCNC4=O)n2)cc1 [4-(5-amino-6-(1-oxo-1,2,3,4-tetrahydroisoquinolin-6-yl)pyrazin-2-yl)-N-(cyclopropylmethyl)-N-ethylbenzenesulfonamide] | < 0.01 | < 0.01
Nc1ncc(-c2ccc(S(=O)(=O)NC3CC3)c(Cl)c2)cc1-c1ccc2c(c1)CCNC2=O [4-(6-amino-5-(1-oxo-1,2,3,4-tetrahydroisoquinolin-6-yl)pyridin-3-yl)-2-chloro-N-cyclopropylbenzenesulfonamide] | < 0.01 | < 0.01
CCN(C)S(=O)(=O)c1ccc(-c2cnc(N)c(-c3ccc4c(c3)CCNC4=O)n2)cc1C [4-(5-amino-6-(1-oxo-1,2,3,4-tetrahydroisoquinolin-6-yl)pyrazin-2-yl)-N-ethyl-N,2-dimethylbenzenesulfonamide] | < 0.01 | < 0.01
N#CC1(c2ccc(-c3cnc(N)c(-c4ccc5c(c4)C4(CC4)NC5=O)c3)cc2)CCOCC1 [4-(4-(6-amino-5-(3′-oxospiro[cyclopropane-1,1′-isoindolin]-6′-yl)pyridin-3-yl)phenyl)tetrahydro-2H-pyran-4-carbonitrile] | < 0.05 | < 0.01
C[C@H]1CNc2cc(-c3cc(-c4ccc(S(=O)(=O)N(C)C5CC5)cc4)cnc3N)ccc2C(=O)N1 [(S)-4-(6-amino-5-(3-methyl-5-oxo-2,3,4,5-tetrahydro-1H-benzo[e][1,4]diazepin-8-yl)pyridin-3-yl)-N-cyclopropyl-N-methylbenzenesulfonamide] | < 0.01 | < 0.01
CN(C1CC1)S(=O)(=O)c1ccc(-c2cnc(N)c(-c3cc4c(cn3)C(=O)NCC4)c2)cc1 [4-(6-amino-5-(8-oxo-5,6,7,8-tetrahydro-2,7-naphthyridin-3-yl)pyridin-3-yl)-N-cyclopropyl-N-methylbenzenesulfonamide] | < 0.01 | < 0.01
CN(C1CC1)S(=O)(=O)c1ccc(-c2cnc(N)c(C#Cc3ccnc(O)c3)n2)cc1 [4-(5-amino-6-((2-hydroxypyridin-4-yl)ethynyl)pyrazin-2-yl)-N-cyclopropyl-N-methylbenzenesulfonamide] | < 0.15 | < 0.05
